The text below walks through data of US20050014780A1, “Process for preparing 5-sulfonamido-8-hydroxy-1,6-naphthyridine-7-carboxamides” (priority 2001, published 2005).

Each structure is given as a SMILES string.

Data set [1] has as its target recombinant integrase (HIV integrase) (Human immunodeficiency virus type 1 group M subtype B, UniProt P04585). The text has this: The present invention includes the preparation of naphthyridine carboxamides of Formula (VIII) by the process set forth above in the Summary of the Invention. […] The strand transfer assay is described in Example 193 of WO 02/30930.
The nature of data set [2]: oral absorption and pharmacokinetics in animal models. In kind it is in vivo. The note with it: compared to Compound 15 per se.

Regarding `O=C(NCc1ccc(F)cc1)c1nc(N2CCCCS2(=O)=O)c2cccnc2c1O` [Compound 15, 5-(1,1-dioxido-1,2-thiazinan-2-yl)-N-(4-fluorobenzyl)-8-hydroxy-1,6-naphthyridine-7-carboxamide], in data set [1], the “HIV integrase inhibition (in words)” value is given as “potent HIV integrase inhibitor”.
Turning to `O=C(NCc1ccc(F)cc1)c1nc(N2CCCCS2(=O)=O)c2cccnc2c1[O-].[Na+]` [Na salt of Compound 15, Sodium salt of 5-(1,1-Dioxido-1,2-thiazinan-2-yl)-N-(4-fluorobenzyl)-8-hydroxy-1,6-naphthyridine-7-carboxamide], in data set [2], the oral absorption entry is given as “superior oral absorption” and the pharmacokinetics entry is “improved pharmacokinetics”.
